{"source": "paper PMC2360206", "about": "(British Journal of Cancer, 2006)", "key": {"Cdk6": {"system": "Cdk6", "settings": "background statement, no reference given; cited from earlier work"}, "[1]": {"set-up": "method as in earlier work", "settings": "exposure over a 24-h period, preclinical data, ref De la Motte and Gianella-Borradori, 2004, Whittaker et al, Tang et al, 2005; cited from earlier work"}, "malignant solid tumour": {"system": "malignant solid tumour", "experiment": "Antitumour activity in patients (RECIST)", "type": "in vivo, human", "settings": "for Patients with stable disease after course 2: progressed by course 4", "protocol": "(§1) Before commencing treatment, a complete medical history was taken and physical examination was performed. The following pretreatment baseline examinations were performed within 4 weeks of starting treatment: full blood count, including white blood cell differential; reticulocyte count, haptoglobin, prothrombin time and Coombs test; serum biochemistry, including sodium, potassium, urea, creatinine, calcium, phosphorus, creatine kinase and isoenzymes, total protein, albumin, bilirubin (direct and total), alkaline phosphatase (ALP), alanine aminotransferase (ALT), aspartate aminotransferase (AST), γ-glutamyl transferase (γGT), lactate dehydrogenase and uric acid; urinalysis; pregnancy test, electrocardiogram and a chest X-ray. Weekly evaluations included history, physical examination, toxicity assessment according to the CTC criteria version 2.0 and full blood count and serum chemistries. Radiographic assessment of tumour was performed within 3 weeks before the patient starting treatment and after every two cycles, according to standard RECIST methodology. Patients were taken off protocol upon disease progression, unacceptable toxicity, investigator discretion, serious violation of protocol or at their own request, and were followed for 28 days after the last administration of the study drug."}, "[2]": {"set-up": "method as in Raynaud et al, 2005", "settings": "mouse, single dose 500 mg kg^−1 p.o.; ref Raynaud et al, 2005; cited from earlier work"}, "[3]": {"experiment": "Phase I toxicity (NCI CTC v2.0) in patients", "type": "in vivo, human", "settings": "for No. with grade 3 & 4 ALT increased / No. with grade 3 & 4 AST increased / No. with grade 3 & 4 Alk Phos increase / No. with grade 3 & 4 Anorexia / No. with grade 3 & 4 Bilirubin increase / No. with grade 3 & 4 CKMB increase / No. with grade 3 & 4 Fatigue / No. with grade 3 & 4 Hyperglycaemia / No. with grade 3 & 4 Hypokalemia / No. with grade 3 & 4 Hyponatraemia / No. with grade 3 & 4 Hypotension / No. with grade 3 & 4 Lymphopenia / No. with grade 3 & 4 Rash / No. with grade 3 & 4 adverse events / No. with grade 3 & 4 γ GT increase: first course; for Patients with derangements in liver biochemistry (γGT and ALP elevations): 7-day treatment period", "text": "Dose-limiting toxicity (DLT) was defined as drug-related toxicity in the first cycle, including grade 4 neutropenia for 7 days or more, neutropenic fever, platelet count <25 × 10^9 l^−1 and/or non-haematological toxicity⩾grade 3. This definition excluded nausea and vomiting subsequently responding to antiemetic therapy and reversible grade 3 increases in liver transaminases. The maximum tolerated dose (MTD) was defined as a dose below which DLT occurred in more than 30% of the patients. Toxicities were evaluated according to the National Cancer Institute Common Toxicity Criteria, version 2.0.\nas §1\nIn addition, more intensive blood chemistry testing was performed on days 1, 3, 5 and 7."}, "Cdk8": {"system": "Cdk8", "settings": "background statement, no reference given; cited from earlier work"}, "human tumour xenograft": {"system": "human tumour xenograft", "set-up": "method as in Raynaud et al, 2005", "settings": "500 mg kg^−1 p.o. b.i.d., mouse; ref Raynaud et al, 2005; cited from earlier work"}, "renal perfusion": {"system": "renal perfusion", "experiment": "MAG3 renogram functional renal imaging", "type": "in vivo, human", "settings": "one of three patients, 800 mg b.i.d., day 3, reverted to normal by day 14", "protocol": "In an attempt to understand further the pathogenesis of these biochemical toxicities, three patients were studied more intensively. Urinary retinol-binding protein (RBP), a marker of renal tubular damage was measured in conjunction with functional renal imaging (MAG3 renograms) to estimate renal blood flow pretreatment on days 3 and 14. […] This was associated with bilateral increases in renal parenchymal retention on day 3 on MAG3 scans, which reverted to normal by day 14 (see Figure 1). […] There were no consistent changes in urinary RBP in any of these patients (Table 3)."}, "[4]": {"settings": "same patient, 800 mg b.i.d., course 2"}}, "data": [{"smiles": "CC[C@H](CO)Nc1nc(NCc2ccccc2)c2ncn(C(C)C)c2n1", "note": "[Seliciclib]", "values": [{"measurement": "Inhibition of Cdk6", "setting": "Cdk6", "value": "only a weak inhibitor"}, {"measurement": "concentration range achieving clinically relevant biological effects", "setting": "[1]", "value": "7.9–30.2 μM"}, {"measurement": "Patients with stable disease after course 2", "setting": "malignant solid tumour; 100 mg b.i.d.", "value": "Two of three"}, {"measurement": "Patients with stable disease after course 2", "setting": "malignant solid tumour; 200 mg b.i.d.", "value": "two of six"}, {"measurement": "Patients with stable disease after course 2", "setting": "malignant solid tumour; 800 mg b.i.d.", "value": "three of 12"}, {"measurement": "Objective tumour responses", "setting": "malignant solid tumour; all dose levels", "value": "No objective tumour responses"}, {"measurement": "Patients with disease stabilisation", "setting": "malignant solid tumour; all dose levels, 21 treated patients", "value": "eight"}, {"measurement": "Duration of disease stabilisation", "setting": "malignant solid tumour; one patient with ovarian cancer, six courses", "value": 18, "unit": "weeks"}, {"measurement": "peak seliciclib concentration", "setting": "[2]", "value": "approximately 100 μM"}, {"measurement": "No. with grade 3 & 4 ALT increased", "setting": "[3]; 100 mg b.i.d, 3 subjects", "value": 0}, {"measurement": "No. with grade 3 & 4 AST increased", "setting": "[3]; 100 mg b.i.d, 3 subjects", "value": 0}, {"measurement": "No. with grade 3 & 4 Alk Phos increase", "setting": "[3]; 100 mg b.i.d, 3 subjects", "value": 0}, {"measurement": "No. with grade 3 & 4 Anorexia", "setting": "[3]; 100 mg b.i.d, 3 subjects", "value": 0}, {"measurement": "No. with grade 3 & 4 Bilirubin increase", "setting": "[3]; 100 mg b.i.d, 3 subjects", "value": 0}, {"measurement": "No. with grade 3 & 4 CKMB increase", "setting": "[3]; 100 mg b.i.d, 3 subjects", "value": 0}, {"measurement": "No. with grade 3 & 4 Fatigue", "setting": "[3]; 100 mg b.i.d, 3 subjects", "value": 0}, {"measurement": "No. with grade 3 & 4 Hyperglycaemia", "setting": "[3]; 100 mg b.i.d, 3 subjects", "value": 0}, {"measurement": "No. with grade 3 & 4 Hypokalemia", "setting": "[3]; 100 mg b.i.d, 3 subjects", "value": 0}, {"measurement": "No. with grade 3 & 4 Hyponatraemia", "setting": "[3]; 100 mg b.i.d, 3 subjects", "value": 0}, {"measurement": "No. with grade 3 & 4 Hypotension", "setting": "[3]; 100 mg b.i.d, 3 subjects", "value": 0}, {"measurement": "No. with grade 3 & 4 Lymphopenia", "setting": "[3]; 100 mg b.i.d, 3 subjects", "value": 0}, {"measurement": "No. with grade 3 & 4 Rash", "setting": "[3]; 100 mg b.i.d, 3 subjects", "value": 0}, {"measurement": "No. with grade 3 & 4 adverse events", "setting": "[3]; 100 mg b.i.d, 3 subjects", "value": 0}, {"measurement": "No. with grade 3 & 4 γ GT increase", "setting": "[3]; 100 mg b.i.d, 3 subjects", "value": 0}, {"measurement": "Toxicity at the 100 mg dose level", "setting": "[3]; 100 mg b.i.d., three patients", "value": "No significant toxicity"}, {"measurement": "No. with grade 3 & 4 ALT increased", "setting": "[3]; 200 mg b.i.d, 6 subjects", "value": 1}, {"measurement": "No. with grade 3 & 4 AST increased", "setting": "[3]; 200 mg b.i.d, 6 subjects", "value": 1}, {"measurement": "No. with grade 3 & 4 Alk Phos increase", "setting": "[3]; 200 mg b.i.d, 6 subjects", "value": 1}, {"measurement": "No. with grade 3 & 4 Anorexia", "setting": "[3]; 200 mg b.i.d, 6 subjects", "value": 0}, {"measurement": "No. with grade 3 & 4 Bilirubin increase", "setting": "[3]; 200 mg b.i.d, 6 subjects", "value": 1}, {"measurement": "No. with grade 3 & 4 CKMB increase", "setting": "[3]; 200 mg b.i.d, 6 subjects", "value": 1}, {"measurement": "No. with grade 3 & 4 Fatigue", "setting": "[3]; 200 mg b.i.d, 6 subjects", "value": 0}, {"measurement": "No. with grade 3 & 4 Hyperglycaemia", "setting": "[3]; 200 mg b.i.d, 6 subjects", "value": 0}, {"measurement": "No. with grade 3 & 4 Hypokalemia", "setting": "[3]; 200 mg b.i.d, 6 subjects", "value": 0}, {"measurement": "No. with grade 3 & 4 Hyponatraemia", "setting": "[3]; 200 mg b.i.d, 6 subjects", "value": 0}, {"measurement": "No. with grade 3 & 4 Hypotension", "setting": "[3]; 200 mg b.i.d, 6 subjects", "value": 0}, {"measurement": "No. with grade 3 & 4 Lymphopenia", "setting": "[3]; 200 mg b.i.d, 6 subjects", "value": 0}, {"measurement": "No. with grade 3 & 4 Rash", "setting": "[3]; 200 mg b.i.d, 6 subjects", "value": 0}, {"measurement": "No. with grade 3 & 4 adverse events", "setting": "[3]; 200 mg b.i.d, 6 subjects", "value": 2}, {"measurement": "No. with grade 3 & 4 γ GT increase", "setting": "[3]; 200 mg b.i.d, 6 subjects", "value": 1}, {"measurement": "Patients with derangements in liver biochemistry (γGT and ALP elevations)", "setting": "[3]; 200 mg b.i.d.", "value": "4 out of 6"}, {"measurement": "No. with grade 3 & 4 ALT increased", "setting": "[3]; 800 mg b.i.d, 12 subjects", "value": 0}, {"measurement": "No. with grade 3 & 4 AST increased", "setting": "[3]; 800 mg b.i.d, 12 subjects", "value": 0}, {"measurement": "No. with grade 3 & 4 Alk Phos increase", "setting": "[3]; 800 mg b.i.d, 12 subjects", "value": 0}, {"measurement": "No. with grade 3 & 4 Anorexia", "setting": "[3]; 800 mg b.i.d, 12 subjects", "value": 1}, {"measurement": "No. with grade 3 & 4 Bilirubin increase", "setting": "[3]; 800 mg b.i.d, 12 subjects", "value": 0}, {"measurement": "No. with grade 3 & 4 CKMB increase", "setting": "[3]; 800 mg b.i.d, 12 subjects", "value": 0}, {"measurement": "No. with grade 3 & 4 Fatigue", "setting": "[3]; 800 mg b.i.d, 12 subjects", "value": 1}, {"measurement": "No. with grade 3 & 4 Hyperglycaemia", "setting": "[3]; 800 mg b.i.d, 12 subjects", "value": 1}, {"measurement": "No. with grade 3 & 4 Hypokalemia", "setting": "[3]; 800 mg b.i.d, 12 subjects", "value": 3}, {"measurement": "No. with grade 3 & 4 Hyponatraemia", "setting": "[3]; 800 mg b.i.d, 12 subjects", "value": 1}, {"measurement": "No. with grade 3 & 4 Hypotension", "setting": "[3]; 800 mg b.i.d, 12 subjects", "value": 1}, {"measurement": "No. with grade 3 & 4 Lymphopenia", "setting": "[3]; 800 mg b.i.d, 12 subjects", "value": 1}, {"measurement": "No. with grade 3 & 4 Rash", "setting": "[3]; 800 mg b.i.d, 12 subjects", "value": 1}, {"measurement": "No. with grade 3 & 4 adverse events", "setting": "[3]; 800 mg b.i.d, 12 subjects", "value": 7}, {"measurement": "No. with grade 3 & 4 γ GT increase", "setting": "[3]; 800 mg b.i.d, 12 subjects", "value": 3}, {"measurement": "Patients with hypokalaemia (<3.0 mmol l^−1)", "setting": "[3]; 800 mg b.i.d.", "value": "five of 12"}, {"measurement": "Patients with seliciclib-induced hyperglycaemia", "setting": "[3]; 800 mg b.i.d.", "value": "five and five of 12"}, {"measurement": "Dose-limiting toxicities", "setting": "[3]; 800 mg b.i.d. p.o., 7 days every 21 days", "value": "grade 3 fatigue, grade 3 skin rash, grade 3 hyponatraemia and grade 4 hypokalaemia"}, {"measurement": "Patients with derangements in liver biochemistry (γGT and ALP elevations)", "setting": "[3]; 800 mg b.i.d.", "value": "10 out of 12"}, {"measurement": "Patients with grade 1 hypokalaemia", "setting": "[3]; 800 mg b.i.d., 12 patients", "value": "two"}, {"measurement": "Patients with grade 3 hypokalaemia", "setting": "[3]; 800 mg b.i.d., 12 patients", "value": "two"}, {"measurement": "Patients with grade 4 hypokalaemia", "setting": "[3]; 800 mg b.i.d., 12 patients", "value": "one"}, {"measurement": "Patients who experienced nausea", "setting": "[3]; 800 mg dose level, not dose-limiting", "value": "11 of the 12"}, {"measurement": "Overall haematological toxicity", "setting": "[3]; all dose levels", "value": "mild"}, {"measurement": "Patients with seliciclib-related DLTs", "setting": "[3]; final six patients treated at 800 mg", "value": "Four of the final six"}, {"measurement": "Serum potassium (lowest level)", "setting": "[3]; one patient, 800 mg b.i.d., day 7 of course 1", "value": 2.2, "unit": "mmol/L"}, {"measurement": "Blood pressure (hypotension)", "setting": "[3]; [4]", "value": "82/52"}, {"measurement": "Serum potassium nadir", "setting": "[3]; [4]", "value": 2.5, "unit": "mmol/L"}, {"measurement": "Serum sodium (hyponatraemia)", "setting": "[3]; [4]", "value": 127, "unit": "mmol/L"}, {"measurement": "Creatinine", "setting": "[3]; same patient, 800 mg b.i.d., course 2, normal range <110", "value": 130, "unit": "µmol/L"}, {"measurement": "Inhibition of Cdk8", "setting": "Cdk8", "value": "only a weak inhibitor"}, {"measurement": "Effect on growth of a human tumour xenograft", "setting": "human tumour xenograft", "value": "significant growth delay"}, {"measurement": "Renal perfusion by MAG3 perfusion indices", "setting": "renal perfusion", "value": "reduction in renal perfusion bilaterally"}]}]}
